# Measurements from paper PMC8235214, “Purification, Identification, Activity Evaluation, and Stability of Antioxidant Peptides from Alcalase Hydrolysate of Antarctic Krill (Euphausia superba) Proteins” (Marine Drugs, 2021).
# Read-outs that look alike come from different tables or passages of the source. Ends that are not written are not given here. Peptide text beside a SMILES is read from it.
# Assays:
# [1] = cited from earlier work; for Stability under thermal and pH treatments: 25–100 °C or pH 3–11 treatments; for Stability under thermal and pH treatments (HO· scavenging activity): high temperature (>60 °C) and strong acid and alkali conditions
# Source text: The pH and thermal stability of antioxidant peptides are key properties for their applications in food and health products, and tolerance property on simulated GI digestion treatments can help to assess the rate of metabolism and timeliness of antioxidant peptides in vivo [25, 52, 68, 69].
# [2] = design: method as in 6 sources, ref 36 = [36]; PMID 23411302; doi:10.1016/j.foodchem.2012.12.002; 36. Wang B. Li L. Chi C.F. Ma J.H. Luo H.Y. Xu Y.F. Purification and Characterization of a novel antioxidant peptide derived from blue mussel ( Mytilus edulis ) protein hydrolysate Food Chem. 2013 138 ||| ref 45 = [45]; doi:10.1016/j.foodres.2010.02.009; 45. You L. Zhao M. Regenstein J.M. Ren J. Purification and identification of antioxidative peptides from loach ( Misgurnus anguillicaudatus ) protein hydrolysate by consecutive chromatography and elec ||| ref 46 = [46]; PMID 22652579; doi:10.1016/j.peptides.2012.05.013; 46. Wang B. Li Z.R. Chi C.F. Zhang Q.H. Luo H.Y. Preparation and evaluation of antioxidant peptides from ethanol-soluble proteins hydrolysate of Sphyrna lewini muscle Peptides 2012 36 240 250 10.1016/ ||| ref 49 = [49]; PMID 31058809; doi:10.3390/md17050263; 49. Pan X.Y. Wang Y.M. Li L. Chi C.F. Wang B. Four antioxidant peptides from protein hydrolysate of red stingray ( Dasyatis akajei ) cartilages: Isolation, identification, and in vitro activity evalua ||| ref 22 = [22]; PMID 32164197; doi:10.3390/md18030153; 22. Hu X.M. Wang Y.M. Zhao Y.Q. Chi C.F. Wang B. Antioxidant peptides from the protein hydrolysate of monkfish ( Lophius litulon ) muscle: Purification, identification, and cytoprotective function on ||| ...; conditions: cited from earlier work
# [3] = cited from earlier work
# Source text: However, no significant difference was found among the EC50 values of ESP6, ESP7, and ESP8 (p > 0.05).
# [4] = cited from earlier work; remark: listed apart in the source
# Source text: In the organism, HO· can oxidize and damage most of the macromolecules due to its high reactivity characteristic. Therefore, looking for natural antioxidant peptides with high HO· scavenging ability is key for discovering new antioxidants. […] In addition, EC50 values of ESP6, ESP7, and ESP8 were also lower ...
# [5] = Simulated GI digestion stability (pepsin then pancreatin, DPPH· scavenging read-out); format: in vitro ADME; conditions: peptide 1.0 mg/mL; two-stage model, pepsin 120 min then pancreatin 60 min (0 to 180 min); mean ± SD, n = 3
# Description: The influence of simulate GI digestion on the stability of ESP6, ESP7, and ESP8 was evaluated by the two-stage digestion model. In short, ESP6, ESP7, and ESP8 were separately treated with pepsin for 120 min and pancreatin for 60 min.
# The DPPH· scavenging ratio (%) of ESP6, ESP7, and ESP8 at 1.0 mg/mL were measured at the set time to analyze their stability.
# [6] = peptides from skipjack tuna heads
# [7] = peptides from miiuy croaker swim bladders
# [8] = peptides from swim bladders of miiuy croaker
# [9] = peptides from Raja porosa cartilage
# [10] = peptides from red stingray cartilages
# [11] = peptides from giant squid protein
# [12] = peptides from Sphyrna lewini muscle
# [13] = peptides from Mytilus edulis and scales of croceine croaker
compound,measurement,setting,value
MYPGLA,Stability under thermal and pH treatments,[1],high stability
"Tyr-Trp-Asp-Ala-Trp [YWDAW, antioxidant peptide from monkfish muscle]",EC50 on DPPH·,[2]; peptides from monkfish muscle,510 µg/mL
ATSHH,Stability under thermal and pH treatments (DPPH· scavenging activity),[1]; 50–90 °C and strong acids and bases,will decrease its partial DPPH· scavenging activity
"Glu-Met-Gly-Pro-Ala [EMGPA, antioxidant peptide from skipjack tuna heads]",EC50 on O2−·,[3]; [6],710 µg/mL
same,Stability under thermal and pH treatments (HO· scavenging activity),[1],significantly influenced
"Phe-Ser-Gly-Leu-Arg [FSGLR, antioxidant peptide from miiuy croaker swim bladders]",EC50 on HO·,[4]; [7],2450 ± 250 µg/mL
same,EC50 on O2−·,[3]; [8],3350 ± 200 µg/mL
"Val-Pro-Asp-Asp [VPDD, antioxidant peptide from miiuy croaker swim bladders]",EC50 on HO·,[4]; [7],2850 ± 190 µg/mL
"Gly-Phe-Tyr-Ala-Ala [GFYAA, antioxidant peptide from miiuy croaker swim bladders]",EC50 on HO·,[4]; [7],2350 ± 220 µg/mL
same,EC50 on O2−·,[3]; [8],3030 ± 190 µg/mL
"Tyr-Phe-Leu-Trp-Pro [YFLWP, antioxidant peptide from miiuy croaker muscle]",EC50 on O2−·,[3]; peptide from miiuy croaker muscle,3080 µg/mL
"Trp-Met-Gly-Pro-Tyr [WMGPY, antioxidant peptide from skipjack tuna heads]",EC50 on O2−·,[3]; [6],380 µg/mL
same,Stability under thermal and pH treatments (HO· scavenging activity),[1],significantly influenced
"CSCC[C@H](NC(=O)[C@@H]1CCCN1C(=O)[C@@H]1CCCN1C(=O)[C@H](Cc1ccc(O)cc1)NC(=O)[C@@H](N)CCC(N)=O)C(=O)N[C@@H](CCC(N)=O)C(=O)N[C@@H](Cc1ccc(O)cc1)C(=O)O [ESP7, Gln-Tyr-Pro-Pro-Met-Gln-Tyr] (H-QYPPMQY-OH)",Decrease of DPPH· scavenging ratio by simulated GI digestion,[5],8.36 ± 0.59%
"Met-Ile-Leu-Met-Arg [MILMR, antioxidant peptide from croceine croaker muscle]",EC50 on O2−·,[3]; peptide from croceine croaker muscle,993 µg/mL
"GPAGDY [GPAGDY, antioxidant peptide from Raja porosa cartilage]",EC50 on O2−·,[3]; [9],1660 µg/mL
"Ile-Glu-Glu-Glu-Gln [IEEEQ, antioxidant peptide from red stingray cartilages]",EC50 on DPPH·,[2]; [10],4010 µg/mL
"Pro-Ser-Tyr-Val [PSYV, antioxidant peptide from weatherfish loach]",EC50 on HO·,[4]; peptide from weatherfish loach,2640 µg/mL
same,EC50 on DPPH·,[2]; peptide from weather loach,17000 µg/mL
"NGPLQAGQPGER [NGPLQAGQPGER, antioxidant peptide from giant squid protein]",EC50 on HO·,[4]; [11],123 µg/mL
"FPYLRH [FPYLRH, antioxidant peptide from miiuy croaker swim bladders]",EC50 on HO·,[4]; [7],680 ± 50 µg/mL
same,EC50 on DPPH·,[2]; [7],510 ± 30 µg/mL
"FIMGPY [FIMGPY, antioxidant peptide from Raja porosa cartilage]",EC50 on O2−·,[3]; [9],1610 µg/mL
"C[C@H](NC(=O)[C@H](CCC(=O)O)NC(=O)[C@H](Cc1ccc(O)cc1)NC(=O)[C@@H](N)CCC(=O)O)C(=O)O [ESP8, Glu-Tyr-Glu-Ala] (H-EYEA-OH)",Decrease of DPPH· scavenging ratio by simulated GI digestion,[5],6.48 ± 1.03%
"EDIVCW [EDIVCW, antioxidant peptide from monkfish muscle]",EC50 on DPPH·,[2]; peptides from monkfish muscle,390 µg/mL
VPDDD [antioxidant peptide from swim bladders of miiuy croaker],EC50 on O2−·,[3]; [8],4110 ± 310 µg/mL
"Trp-Asp-Arg [WDR, antioxidant peptide from Sphyrna lewini muscle]",EC50 on HO·,[4]; [12],150 µg/mL
same,EC50 on DPPH·,[2]; [12],3630 µg/mL
same,EC50 on O2−·,[3]; [12],90 µg/mL
"CC(C)C[C@H](NC(=O)[C@@H](N)CO)C(=O)N1CCC[C@H]1C(=O)N[C@@H](Cc1ccc(O)cc1)C(=O)O [ESP6, Ser-Leu-Pro-Tyr] (H-SLPY-OH)",Decrease of DPPH· scavenging ratio by simulated GI digestion,[5],6.41 ± 0.96%
"Trp-Glu-Gly-Pro-Lys [WEGPK, antioxidant peptide from heads of bluefin leatherjacket]",EC50 on HO·,[4]; peptide from heads of bluefin leatherjacket,5567 µg/mL
"Leu-Glu-Glu-Glu-Glu [LEEEE, antioxidant peptide from red stingray cartilages]",EC50 on DPPH·,[2]; [10],3690 µg/mL
WAFAPA,Stability under thermal and pH treatments,[1],high stability
Val-Pro-Arg [VPR],EC50 on DPPH·,[2]; [10],4610 µg/mL
"FDSGPAGVL [FDSGPAGVL, antioxidant peptide from giant squid protein]",EC50 on HO·,[4]; [11],78 µg/mL
"Trp-Met-Phe-Asp-Trp [WMFDW, antioxidant peptide from skipjack tuna heads]",EC50 on O2−·,[3]; [6],560 µg/mL
same,Stability under thermal and pH treatments (HO· scavenging activity),[1],significantly influenced
"Tyr-Leu-Pro-Tyr-Ala [YLPYA, antioxidant peptide from swim bladders of miiuy croaker]",EC50 on O2−·,[3]; [8],3610 ± 250 µg/mL
"IVAGPQ [IVAGPQ, antioxidant peptide from skate (Raja porosa) cartilages]",EC50 on HO·,[4]; peptide from skate cartilages,5030 µg/mL
same,EC50 on O2−·,[3]; [9],1820 µg/mL
"Phe-Thr-Gly-Met-Asp [FTGMD, antioxidant peptide from miiuy croaker swim bladders]",EC50 on HO·,[4]; [7],2310 ± 120 µg/mL
same,EC50 on O2−·,[3]; [8],3040 ± 270 µg/mL
"GPAGPAG [GPAGPAG, antioxidant peptide from scales of croceine croaker]",EC50 on DPPH·,[2]; [13],675 µg/mL
"Gly-Ile-Glu-Trp-Ala [GIEWA, antioxidant peptide from miiuy croaker swim bladders]",EC50 on DPPH·,[2]; [7],780 ± 50 µg/mL
"Tyr-Pro-Pro-Ala-Lys [YPPAK, antioxidant peptide from blue mussel (Mytilus edulis)]",EC50 on HO·,[4]; peptide from blue mussel,228 µg/mL
same,EC50 on DPPH·,[2]; [13],2620 µg/mL
same,EC50 on O2−·,[3]; peptide from blue mussel,72 µg/mL
"Pro-Tyr-Phe-Asn-Lys [PYFNK, antioxidant peptide from Sphyrna lewini muscle]",EC50 on HO·,[4]; [12],240 µg/mL
same,EC50 on DPPH·,[2]; [12],4110 µg/mL
same,EC50 on O2−·,[3]; [12],110 µg/mL
"Met-Glu-Pro-Val-Trp [MEPVW, antioxidant peptide from monkfish muscle]",EC50 on DPPH·,[2]; peptides from monkfish muscle,620 µg/mL
same,EC50 on O2−·,[3]; peptide from monkfish muscle,940 µg/mL
"Gly-Phe-Pro-Ser-Gly [GFPSG, antioxidant peptide from scales of croceine croaker]",EC50 on DPPH·,[2]; [13],283 µg/mL
